The subject of this experiment is PGY-sRNA-26. In words: In vivo delivery study of lipid-nucleic acid mixture (oral gavage, RT-qPCR of PGY-sRNA-26 in tissues). The arrangement: species or system mouse. Particulars: C57BL/6 mice, gavage, 100 μg lipid: 10 nmol PGY-sRNA-26, 12 hours; for delivery efficacy over each tissue and blood tested (broad-spectrum delivery): all tissues and blood tested; for oral delivery of single-stranded sRNA nucleic acids into mouse intestinal tissue: intestine. As to the method: 10 nmol of small RNA (as shown in Table 2) was dissolved in 400 μl of DEPC-treated water in a glass tube, 10 μl of the corresponding lipid stock solution was added such that the lipid mass in the system was 100 μg. The mixture was mixed thoroughly, heated in a 90° C. water bath for 15 minutes, and then cooled naturally to obtain the lipid nucleic acid mixture of lipid and small RNA.
C57BL/6 male mice, approximately 6 weeks old, weighing 20-24 g, were obtained from Beijing Vital River Laboratory Animal Technology Co., Ltd. The mice were housed in the SPF-grade animal facility at the Animal Center of the Institute of Basic Medical Sciences, Chinese Academy of Medical Sciences. The mice were fasted for 12 hours before gavage administration.
The resultant lipid nucleic acid mixture was orally administered to each mouse at a dose of 100 μg lipid: 10 nmol single-stranded 3′-methylated small RNA PGY-sRNA-26.
• 1) Blank group (n=4): mice were administered with 500 μl saline by gavage, this group served as a blank control; • 2) Free uptake group (n=4): mice were directly administered with small RNA PGY-sRNA-26 solution (10 nmol/mouse, 500 μl) by gavage, this group served as a negative control; • 3) Lipid-treated group (n=4): mice were administered with 500 μl lipid nucleic acid mixture prepared in step 2 by gavage.
After 12 hours of gavage administration, 500 μl blood from the eyeball of each mouse was sampled, added to 1.5 ml Trizol Reagent LS (purchased from Invitrogen), thoroughly mixed for lysis. 3 ml of Trizol Reagent LSwas added to tissue samples and homogenized for complete lysis, wherein the sampled tissues include heart, liver, spleen, lung, kidney, stomach, intestine, brain, blood, femur. RNA was extracted from 1 ml of the blood or the tissue lysate following the steps below: • Centrifuge at 4° C., 12,000 rpm for 5 min, discard the precipitate, transfer Trizol to a new centrifuge tube; • Add chloroform at 200 μL chloroform/mL Trizol, shake well, stand at room temperature for 5 min; • Centrifuge at 4° C., 12,000 rpm for 15 min; • Take the upper aqueous phase to another centrifuge tube, add isopropanol at 0.4 mL isopropanol/mL Trizol, mix well, and stand at low temperature for 10-20 min; • Centrifuge at 4° C., 12,000 rpm for 15 min, discard the supernatant, RNA precipitated at the bottom of the tube; • Add 1 mL of 75% ethanol, gently shake the centrifuge tube, suspend the precipitate; • Centrifuge at 4° C., 12,000 rpm for 15 min, discard the supernatant, add 1 mL of 75% ethanol, gently shake the centrifuge tube, suspend the precipitate; • Centrifuge at 4° C., 12,000 rpm for 15 min, discard the supernatant, air-dry at room temperature, dissolve RNA samples in 50 μL RNase-free H2O, measure OD value to quantify RNA concentration. 3.3 Reverse Transcription of sRNA to cDNA:
The reverse transcription system is as follows: Template RNA (200 ng/μL) 10 μL, 10×RT Buffer 2.0 μL, 25×dNTP Mix (100 mM) 0.8 μL, U6 RT stem-loop primer (10 μM) 2.0 μL, PGY-sRNA-26 RT stem-loop primer (10 μM) 2.0 μL, MultiScribe™ Reverse Transcriptase (50 U/μL) 1.0 μL, RNAse Inhibitor (40 U/μL) 1.0 μL, nuclease-free H2O 1.2 μL. After transient centrifugation, the reverse transcription system was placed in a PCR machine with the following reaction conditions: (1) 25° C., 10 min; (2) 37° C., 120 min; (3) 85° C., 5 min; (4) 4° C., stop reaction. After the reaction, add 20 μL RNAse-free ddH2O, adjust the final volume to 40 μL. The stem-loop primers used in this reverse transcription process were synthesized by Beijing Tianyi Huiyuan Biotechnology Co., Ltd. (U6 was used as a standard reference gene to calculate its relative expression, because U6 RT primer was used as a reference gene in relative quantification of RT-qPCR reactions for small RNA): […]
On the technique in general: Quantitative PCR measures a nucleic acid by following its amplification.

From patent publication US20240293551A1, “USE OF ST-TYPE LIPID COMPOUNDS IN PREPARATION OF NUCLEIC ACID DELIVERY REAGENT AND RELATED PRODUCT” (INSTITUTE OF BASIC MEDICAL SCIENCES CHINESE ACADEMY OF …, priority 2021, published 2024) come the findings set out here.

With `C[C@@H]1O[C@@H](O[C@H]2C[C@@H](O)[C@]3(CO)[C@H]4[C@H](O)C[C@]5(C)[C@@H](C6=CC(=O)OC6)CC[C@]5(O)[C@@H]4CC[C@]3(O)C2)[C@H](O)[C@H](O)[C@H]1O` [Lipid 550], the “delivery efficacy over each tissue and blood tested (broad-spectrum delivery)” value is reported as “exhibited the best delivery efficacy”; the “oral delivery of single-stranded sRNA nucleic acids into mouse blood” value is on record as “can effectively orally deliver”; the “oral delivery of single-stranded sRNA nucleic acids into mouse brain tissue” value is on record as “can effectively orally deliver”; the “oral delivery of single-stranded sRNA nucleic acids into mouse femur” value is listed as “can effectively orally deliver”. In addition, the “oral delivery of single-stranded sRNA nucleic acids into mouse heart tissue” value was “can effectively orally deliver”, the “oral delivery of single-stranded sRNA nucleic acids into mouse intestinal tissue” value was “can effectively orally deliver”, the “oral delivery of single-stranded sRNA nucleic acids into mouse kidney tissue” value was “can effectively orally deliver” and the “oral delivery of single-stranded sRNA nucleic acids into mouse liver tissue” value is “can effectively orally deliver”. The “oral delivery of single-stranded sRNA nucleic acids into mouse lung tissue” value is on record as “can effectively orally deliver”, the “oral delivery of single-stranded sRNA nucleic acids into mouse spleen tissue” value is recorded as “can effectively orally deliver” and the “oral delivery of single-stranded sRNA nucleic acids into mouse stomach tissue” value was “can effectively orally deliver”.

As for `CC(C)CCC[C@@H](C)[C@H]1CC[C@H]2[C@@H]3C[C@@H](O)[C@@]4(O)C[C@@H](O)CC[C@]4(C)[C@H]3CC[C@]12C` [Lipid 551, Cholestan-3,5,6-triol (3S,5R,6R,8S,9S,10R,13R,14S,17R)-10,13-dimethyl-17-[(2R)-6-methylheptan-2-yl]-1,2,3,4,6,7,8,9,11,12,14,15,16,17-tetradecahydrocyclopenta[a]phenanthrene-3,5,6-triol], the “delivery efficacy over each tissue and blood tested (broad-spectrum delivery)” value is “exhibited the best delivery efficacy”; the “oral delivery of single-stranded sRNA nucleic acids into mouse blood” value is recorded as “can effectively orally deliver”; the “oral delivery of single-stranded sRNA nucleic acids into mouse brain tissue” value is given as “can effectively orally deliver”; the “oral delivery of single-stranded sRNA nucleic acids into mouse femur” value is listed as “can effectively orally deliver”. Moreover, the “oral delivery of single-stranded sRNA nucleic acids into mouse heart tissue” value is on record as “can effectively orally deliver”, the “oral delivery of single-stranded sRNA nucleic acids into mouse intestinal tissue” value was “can effectively orally deliver”, the “oral delivery of single-stranded sRNA nucleic acids into mouse kidney tissue” value is “can effectively orally deliver” and the “oral delivery of single-stranded sRNA nucleic acids into mouse liver tissue” value is on record as “can effectively orally deliver”. The “oral delivery of single-stranded sRNA nucleic acids into mouse lung tissue” value is on record as “can effectively orally deliver”, the “oral delivery of single-stranded sRNA nucleic acids into mouse spleen tissue” value was “can effectively orally deliver” and the “oral delivery of single-stranded sRNA nucleic acids into mouse stomach tissue” value is “can effectively orally deliver”.

As for `C[C@H](CCC(=O)NCC(=O)O)[C@H]1CC[C@H]2[C@@H]3CC[C@@H]4C[C@H](O)CC[C@]4(C)[C@H]3C[C@H](O)[C@]12C` [Lipid 552], the “delivery efficacy over each tissue and blood tested (broad-spectrum delivery)” value is given as “exhibited the best delivery efficacy”; the “oral delivery of single-stranded sRNA nucleic acids into mouse blood” value is reported as “can effectively orally deliver”; the “oral delivery of single-stranded sRNA nucleic acids into mouse brain tissue” value is given as “can effectively orally deliver”; the “oral delivery of single-stranded sRNA nucleic acids into mouse femur” value was “can effectively orally deliver”. Moreover, the “oral delivery of single-stranded sRNA nucleic acids into mouse heart tissue” value was “can effectively orally deliver”, the “oral delivery of single-stranded sRNA nucleic acids into mouse intestinal tissue” value was “can effectively orally deliver”, the “oral delivery of single-stranded sRNA nucleic acids into mouse kidney tissue” value was “can effectively orally deliver” and the “oral delivery of single-stranded sRNA nucleic acids into mouse liver tissue” value is reported as “can effectively orally deliver”. In addition, the “oral delivery of single-stranded sRNA nucleic acids into mouse lung tissue” value is listed as “can effectively orally deliver”, the “oral delivery of single-stranded sRNA nucleic acids into mouse spleen tissue” value is “can effectively orally deliver” and the “oral delivery of single-stranded sRNA nucleic acids into mouse stomach tissue” value is “can effectively orally deliver”.
